Tested on: MG-63 cells
Assay: Ganciclovir cytotoxicity/bystander effects in HStk vector transduced MG-63 cells
Format: cell-based, human
Details: GCV 20 μg/ml, 10 days
Method: Initial dose-response studies determined the sensitivity of MG-63 cells and the optimal concentrations of G418 used to select transduced cells. Upon G418 selection, varying proportions of HStk-transduced and non-transduced MG-63 cells (plating density 2.5×10^4 cells) were exposed to 20 μg GCV/ml D10 in each of six-well plates, for 10 days. […] Bystander effects of GCV treatment were compared to those in HStk-transduced NIH 3T3 cells (ATCC No. CRL 1658).

With `Nc1nc(O)c2ncn(COC(CO)CO)c2n1` [GCV, ganciclovir] the degree of confluency (10% HStk+/90% HStk− MG-63 cells) was 15%, the degree of confluency (30% HStk+/70% HStk− MG-63 cells) was 15% and the degree of confluency (50% HStk+/50% HStk− MG-63 cells) was 10%. For the same compound, the degree of confluency (100% HStk− (non-transduced) MG-63 cells) was 75% and the degree of confluency (greater than 50% HStk+ MG-63 cells) was < 10%.
